Here are results for one sequence from patent publication US20050267020A1, “Polypeptides derived from inducible hsp70 and pharmaceutical compositions containing the same” (priority 2001, published 2005).

For the assay, the system named is murine CTL lines mCTL134, mCTL380, mCTL391, mCTL393. In words: Murine CTL avidity for peptide, 51Cr release cytotoxic assay. Type of assay: cell-based, HHD mice. Particulars: peptide concentration, effector:target ratio 40:1, each CTL line with its respective Hsp70 peptide, read-out: avidity (50% of maximal lysis). Here is the method: The four graphs indicate the cell lysis by CTL lines obtained after stimulation with the following peptides, respectively: HSP134 (line mCTL134), HSP380 (line mCTL380), HSP391 (line mCTL391) and HSP393 (line mCTL393). The avidity of the CTLs for their cellular target is determined with a ^51Cr release assay with an effector:target ratio of 40:1. The percentage of lysis of target cells is expressed on the Y axis, as a function of peptide concentration in the medium, which is represented on the X axis. In each graph, the black curve with diamond-shaped points represent cell lysis in presence of HSP peptides, whereas the grey curve with square points represent cell lysis in presence of cognate HSC peptides.
For measuring the avidity of mCTL134 for cells presenting HSP134, the peptide concentration ranges from […]. For mCTL380, mCTL391 and mCTL393, the respective peptide concentration ranges from 1 pM to 1 μM. The different points on each curve correspond, from left to right, to peptide concentrations of 1 pM, 10 pM, 100 pM, 1 nM, 10 nM, 100 nM and 1 μM.
Generation of CTL in HLA-transgenic mice. […]
Cytotoxic assay. […] After incubation, 100 μL of supernatant was collected and radioactivity was measured in a γ-counter. Percentage of specific lysis was determined as: Lysis=(Experimental Release−Spontaneous Release)/(Maximal Release−Spontaneous Release)×100. […]

Regarding LMGDKSENV [HSP 380], the EC50 is around 0.01 µM.
